Laboratory results: US12070501B1, “Topical ophthalmological compositions” (ADS Therapeutics LLC, priority 2021, dated 2024)

Columns and labels:
[1] = Miscibility of semi-fluorinated alkane F6H8 with MCT or light liquid paraffin oil; assay type: physicochemical
Method: F6H8, a semi-fluorinated alkane was tested for miscibility with MCT with the ratio of F6H8 to MCT from 1:99 to 99:1. […] F6H8, a semi-fluorinated alkane was tested for miscibility with light liquid paraffin oil with the ratio of F6H8 to light liquid paraffin oil from 1:99 to 99:1.

[2] = system: New Zealand White rabbits
[3] = water-based formulation at neutral pH; cited from earlier work

| SMILES | Miscibility with MCT ([1]; ratio of F6H8 to MCT from 1:99 to 99:1) | Miscibility with light liquid paraffin oil ([1]; ratio of F6H8 to light liquid paraffin oil from 1:99 to 99:1) | Magnitude of pupil size changes versus atropine sulfate in aqueous solution ([2]; atropine in F6H8-based formulation, at comparable doses) | Dose response in pupil size dilation ([2]; from 0.01% to 0.05% atropine, Day 7 and Day 22) | Pupil size dilation ([2]; topical ocular instillation twice daily, 40 μL to left eye, Day 7 and Day 22, CBT-009 at 0.01%, […] and 0.05% in […] phenylethyl alcohol, 10% MCT, 89.75% F6H8, comparator 0.03%) | Shelf life of the product [3] |
| --- | --- | --- | --- | --- | --- | --- |
| CCCCCCCCC(F)(F)C(F)(F)C(F)(F)C(F)(F)C(F)(F)C(F)(F)F [F6H8, perfluorohexyloctane] | miscible with MCT at all ratios | miscible with light liquid paraffin oil at all ratios |  |  |  |  |
| CN1[C@@H]2CC[C@H]1C[C@@H](OC(=O)C(CO)c1ccccc1)C2 (stereo partly drawn) [Atropine, atropine] |  |  | comparable | dose response in pupil size dilation was observed | pupil size dilation was observed | less than 1 year |
